Reference: the supplement of paper PMC10307832

Assays:
Experiment in all cases: relative viability (nuclei count vs DMSO), 5 days (fraction); higher = more cells survive
CAL-12T = system: CAL-12T
Method in brief: (§1)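 Relative viability equals treated-well nuclei counts divided by vehicle-well nuclei counts. Counts came from 4× images of lung cancer cell lines grown in 1536-well plates for 5 days after pin-tool dosing on the day after seeding. Dosing used one drug alone or a fixed anchor-drug dose plus five library-drug doses (not always all listed) in √10 steps, and values are medians of duplicate plates.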

LC-2-ad = system: LC-2-ad
Method in brief: as §1

NCI-H650 = system: NCI-H650
Method in brief: as §1

NCI-H1651 = system: NCI-H1651
Method in brief: as §1

NCI-H727 = system: NCI-H727
Method in brief: as §1

NCI-H596 = system: NCI-H596
Method in brief: as §1

NCI-H520 = system: NCI-H520
Method in brief: as §1

NCI-H1915 = system: NCI-H1915
Method in brief: as §1

PC-3 [JPC-3] = system: PC-3 [JPC-3]
Method in brief: as §1

NCI-H441 = system: NCI-H441
Method in brief: as §1

H3255 = system: H3255
Method in brief: as §1

NCI-H1944 = conditions: first compound 0.005 µM
Method in brief: as §1

CC1(C)CCC(c2ccc(Cl)cc2)=C(CN2CCN(c3ccc(C(=O)NS(=O)(=O)c4ccc(N[C@H](CCN5CCOCC5)CSc5ccccc5)c(S(=O)(=O)C(F)(F)F)c4)cc3)CC2)C1 [Navitoclax] + C[C@]1(O)C[C@@H](c2nc(-c3ccc4ccc(-c5ccccc5)nc4c3)c3c(N)nccn32)C1 [Linsitinib] (partner 1 µM)
relative viability (CAL-12T; first compound 0.005 µM): 0.849
relative viability (CAL-12T; first compound 0.01581 µM): 0.937
relative viability (CAL-12T; first compound 0.05 µM): 0.775
relative viability (CAL-12T; first compound 0.1581 µM): 0.736
relative viability (CAL-12T; first compound 0.5 µM): 0.726
relative viability (LC-2-ad; first compound 0.005 µM): 0.853
relative viability (LC-2-ad; first compound 0.01581 µM): 0.904
relative viability (LC-2-ad; first compound 0.05 µM): 0.787
relative viability (LC-2-ad; first compound 0.1581 µM): 0.789
relative viability (LC-2-ad; first compound 0.5 µM): 0.796
relative viability (NCI-H650; first compound 0.005 µM): 0.703
relative viability (NCI-H650; first compound 0.01581 µM): 0.817
relative viability (NCI-H650; first compound 0.05 µM): 0.97
relative viability (NCI-H650; first compound 0.1581 µM): 0.767
relative viability (NCI-H650; first compound 0.5 µM): 0.846
relative viability (NCI-H1651; first compound 0.005 µM): 0.945
relative viability (NCI-H1651; first compound 0.01581 µM): 1.25
relative viability (NCI-H1651; first compound 0.1581 µM): 0.966
relative viability (NCI-H1651; first compound 0.5 µM): 0.937
relative viability (NCI-H727; first compound 0.005 µM): 0.299
relative viability (NCI-H727; first compound 0.01581 µM): 0.358
relative viability (NCI-H727; first compound 0.1581 µM): 0.284
relative viability (NCI-H727; first compound 0.5 µM): 0.162
relative viability (NCI-H596; first compound 0.005 µM): 1.09
relative viability (NCI-H596; first compound 0.01581 µM): 1.09
relative viability (NCI-H596; first compound 0.05 µM): 0.722
relative viability (NCI-H596; first compound 0.1581 µM): 1
relative viability (NCI-H596; first compound 0.5 µM): 1.02
relative viability (NCI-H520; first compound 0.005 µM): 0.891
relative viability (NCI-H520; first compound 0.01581 µM): 1.15
relative viability (NCI-H520; first compound 0.05 µM): 1.12
relative viability (NCI-H520; first compound 0.1581 µM): 0.832
relative viability (NCI-H520; first compound 0.5 µM): 0.771
relative viability (NCI-H1915; first compound 0.005 µM): 1.1
relative viability (NCI-H1915; first compound 0.01581 µM): 1.12
relative viability (NCI-H1915; first compound 0.05 µM): 1.07
relative viability (NCI-H1915; first compound 0.1581 µM): 1.05
relative viability (NCI-H1915; first compound 0.5 µM): 1.06
relative viability (PC-3 [JPC-3]; first compound 0.005 µM): 0.964
relative viability (PC-3 [JPC-3]; first compound 0.01581 µM): 0.996
relative viability (PC-3 [JPC-3]; first compound 0.05 µM): 0.996
relative viability (PC-3 [JPC-3]; first compound 0.1581 µM): 0.983
relative viability (PC-3 [JPC-3]; first compound 0.5 µM): 0.969
relative viability (NCI-H441; first compound 0.005 µM): 0.449
relative viability (NCI-H441; first compound 0.01581 µM): 0.587
relative viability (NCI-H441; first compound 0.05 µM): 0.412
relative viability (NCI-H441; first compound 0.1581 µM): 0.44
relative viability (NCI-H441; first compound 0.5 µM): 0.706
relative viability (H3255; first compound 0.005 µM): 0.917
relative viability (H3255; first compound 0.01581 µM): 1.12
relative viability (H3255; first compound 0.05 µM): 0.877
relative viability (H3255; first compound 0.1581 µM): 0.892
relative viability (H3255; first compound 0.5 µM): 0.89
relative viability (NCI-H1944): 1.19
